Tested on: CFA-induced chronic arthritic pain
Experiment: CFA-induced chronic knee joint arthritic pain in rats, weight bearing (incapacitance tester)
Details: for Analgesic efficacy (mean percentage of maximal possible effect, weight bearing): highest possible dose without readout confounding side effects, five days post intraarticular CFA, n=10; for Side effects at higher doses: doses higher than the highest analyzed dose

Compound: CC(C)Cc1ccc(C(C)C(=O)O)cc1 (centres unmarked) [Ibuprofen]
- Analgesic efficacy (mean percentage of maximal possible effect, weight bearing) (147 mg/kg ip): 54.7% @ 147 mg/kg
- Analgesic efficacy (mean percentage of maximal possible effect, weight bearing) (147 mg/kg ip, listed as ibuprofen): 54.7%
- Side effects at higher doses (rats): readout (weight bearing) confounding side effects

Compound: CN1CC[C@]23c4c5ccc(O)c4O[C@H]2[C@@H](O)C=C[C@H]3[C@H]1C5 [Morphine]
- Analgesic efficacy (mean percentage of maximal possible effect, weight bearing) (2.15 mg/kg iv): 59.6% @ 2.15 mg/kg
- Analgesic efficacy (mean percentage of maximal possible effect, weight bearing) (2.15 mg/kg iv, listed as morphine): 59.6%
- Side effects at higher doses (rats): readout (weight bearing) confounding side effects

Compound: COc1ccc2c3c1O[C@H]1C(=O)CC[C@@]4(O)[C@@H](C2)N(C)CC[C@]314 [Oxycodone]
- Analgesic efficacy (mean percentage of maximal possible effect, weight bearing) (0.464 mg/kg i.v.): 46.1% @ 0.464 mg/kg
- Analgesic efficacy (mean percentage of maximal possible effect, weight bearing) (0.464 mg/kg i.v., listed as oxycodone): 46.1%
- Side effects at higher doses (rats): readout (weight bearing) confounding side effects

Compound: CC[C@@H](c1cccc(O)c1)[C@@H](C)CN(C)C [Tapentadol, (−)-(1R,2R)-3-(3-dimethylamino-1-ethyl-2-methyl-propyl)¬phenol]
- Side effects at higher doses (rats): readout (weight bearing) confounding side effects
- Effect on CFA-induced decrease in weight bearing (i.v. administration, rats, dose dependence): significantly reduced the CFA-induced decrease in weight bearing in a dose dependent manner

Reference: patent US20180235909A1, “Use of 1-phenyl-3-dimethylaminopropane Compounds for Treating Rheumatoid Pain” (Gruenenthal GmbH, priority 2009, published 2018)
